Test results reported in patent publication US8741926B2, “Macrocyclic inhibitors of hepatitis C virus” (Tibotec Pharmaceuticals Ltd., priority 2005, dated 2014).
Read-outs that look alike come from different tables or passages of the source.

Tests used:
[1] = rcm bond, 14-membered ring, 1,2-dichloroethane
[2] = system: HCV type 1b replicon in Huh-7 luc/neo (Huh-Luc) cells; test: Replicon assay: inhibition of HCV RNA replication in Huh-Luc cells (luciferase); type: cell-based; conditions: luciferase activity, incubation of three days
Procedure: The in vitro antiviral activity against HCV of the compounds of formula (I) was tested in a cellular HCV replicon system based on Lohmann et al. (1999) Science 285:110-113, with the further modifications described by Krieger et al. (2001) Journal of Virology 75: 4614-4624, which is further exemplified in the examples section. This model, while not a complete infection model for HCV, is widely accepted as the most robust and efficient model of autonomous HCV RNA replication currently available. […] It will be appreciated that it is important to distinguish between compounds that specifically interfere with HCV functions from those that exert cytotoxic or cytostatic effects in the HCV replicon model, and as a consequence cause a decrease in HCV RNA or linked reporter enzyme concentration. Assays are known in the field for the evaluation of cellular cytotoxicity based for example on the activity of mitochondrial enzymes using fluorogenic redox dyes such as resazurin. Furthermore, cellular counter screens exist for the evaluation of non-selective inhibition of linked reporter gene activity, such as firefly luciferase. Appropriate cell types can be equipped by stable transfection with a luciferase reporter gene whose expression is dependent on a constitutively active gene promoter, and such cells can be used as a counter-screen to eliminate non-selective inhibitors.
The compounds of formula (I) were examined for activity in the inhibition of HCV RNA replication in a cellular assay. […] The cellular assay was based on a bicistronic expression construct, as described by Lohmann et al. (1999) Science vol. 285 pp. 110-113 with modifications described by Krieger et al. (2001) Journal of Virology 75: 4614-4624, in a multi-target screening strategy. In essence, the method was as follows.
The assay utilized the stably transfected cell line Huh-7 luc/neo (hereafter referred to as Huh-Luc). This cell line harbors an RNA encoding a bicistronic expression construct comprising the wild type NS3-NS5B regions of HCV type 1b translated from an Internal Ribosome Entry Site (IRES) from encephalomyocarditis virus (EMCV), preceded by a reporter portion (FfL-luciferase), and a selectable marker portion (neo^R, neomycine phosphotransferase). The construct is bordered by 5′ and 3′ NTRs (non-translated regions) from HCV type 1b. Continued culture of the replicon cells in the presence of G418 (neo^R) is dependent on the replication of the HCV RNA. The stably transfected replicon cells that express HCV RNA, which replicates autonomously and to high levels, encoding inter alia luciferase, are used for screening the antiviral compounds.
The replicon cells were plated in 384 well plates in the presence of the test and control compounds which were added in various concentrations. Following an incubation of three days, HCV replication was measured by assaying luciferase activity (using standard luciferase assay substrates and reagents and a Perkin Elmer ViewLux™ ultraHTS microplate imager). Replicon cells in the control cultures have high luciferase expression in the absence of any inhibitor. The inhibitory activity of the compound on luciferase activity was monitored on the Huh-Luc cells, enabling a dose-response curve for each test compound.

HCV NS3/4A protease = HCV NS3/4A protease (Hepatitis C virus genotype 1a (isolate H77) (HCV), UniProt P27958); test: Inhibition assay (enzymatic assay) of full-length NS3 protease with NS4A cofactor; type: biochemical; conditions: full-length NS3 protease 1 nM, 25 μM NS4A cofactor, depsipeptide substrate, competitive inhibition model; read-out: Ki (μM) Enzymatic assay
Procedure: [Landro, 1997 #Biochem 36 9340-9348]. […] The solutions were stored at −20° C. between measurements.
[Liu, 1999 Analytical Biochemistry 267 331-335].

HCV NS3/4A protease, sequence (P27958 1027-1657): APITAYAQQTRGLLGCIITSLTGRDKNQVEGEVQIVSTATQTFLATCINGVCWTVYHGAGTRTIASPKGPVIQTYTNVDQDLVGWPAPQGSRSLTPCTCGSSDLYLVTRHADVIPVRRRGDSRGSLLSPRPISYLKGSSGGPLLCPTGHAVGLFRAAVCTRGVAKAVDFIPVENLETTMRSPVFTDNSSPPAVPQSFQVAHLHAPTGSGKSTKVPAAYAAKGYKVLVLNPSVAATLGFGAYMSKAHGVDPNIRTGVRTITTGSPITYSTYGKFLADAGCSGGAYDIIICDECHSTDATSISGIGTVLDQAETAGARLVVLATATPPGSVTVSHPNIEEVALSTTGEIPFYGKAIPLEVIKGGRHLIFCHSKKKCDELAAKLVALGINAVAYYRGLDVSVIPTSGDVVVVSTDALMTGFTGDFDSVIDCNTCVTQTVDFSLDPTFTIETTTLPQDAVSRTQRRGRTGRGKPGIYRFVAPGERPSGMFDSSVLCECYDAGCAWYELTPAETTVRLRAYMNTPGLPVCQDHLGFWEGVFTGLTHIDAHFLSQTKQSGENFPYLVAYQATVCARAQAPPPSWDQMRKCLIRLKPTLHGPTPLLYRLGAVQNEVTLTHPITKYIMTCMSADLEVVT

Row | Molecule | EC50 ([2]; Hepatitis C virus, Huh-7, 72 h) | Ki (HCV NS3/4A protease) | further results
1 | CCOC(=O)C12CC1C=CCCCCN(C)C(=O)C1CC(Oc3cc(-c4cccc(C(C)C)n4)nc4c(C)c(OC)ccc34)CC1C(=O)N2 (centres unmarked) |  |  | ring closure, isolated yield ([1]; from C=CCCCCN(C)C(=O)C1CC(Oc2cc(-c3cccc(C(C)C)n3)nc3c(C)c(OC)ccc23)CC1C(=O)NC1(C(=O)OCC)CC1C=C, Hoveyda-Grubbs I (3 portions), 17.0 h): 66%
2 | CCOC(=O)C12CC1C=CCCCCN(C)C(=O)C1CC(Oc3cc(-c4cccc(C)n4)nc4c(C)c(OC)ccc34)CC1C(=O)N2 (centres unmarked) |  |  | ring closure, isolated yield ([1]; from C=CCCCCN(C)C(=O)C1CC(Oc2cc(-c3cccc(C)n3)nc3c(C)c(OC)ccc23)CC1C(=O)NC1(C(=O)OCC)CC1C=C, Hoveyda-Grubbs II, 1.48 mM, 16.0 h): 58%
3 | COc1ccc2c(O[C@@H]3C[C@H]4C(=O)N[C@]5(C(=O)NS(=O)(=O)C6CC6)C[C@H]5/C=C\CCCCCNC(=O)N4C3)cc(-c3nc(C(C)C)cs3)nc2c1C (stereo in doubt) [Compound 91, N-[[18-[2-[4-(isopropyl)thiazol-2-yl]-7-methoxy-8-methylquinolin-4-yloxy]-2,15-dioxo-3,14,16-triazatricyclo[14.3.0.0^4,6]nonadec-7-en-4-yl]carbonyl]-(cyclopropyl)sulfonamide] | 0.00854 µM | 0.05 nM | 
4 | COc1ccc2c(O[C@@H]3C[C@H]4C(=O)N[C@]5(C(=O)NS(=O)(=O)C6CC6)C[C@H]5/C=C\CCCCCNC(=O)N4C3)cc(-c3nc(C(C)C)cs3)nc2c1Cl (stereo in doubt) [Compound 94, N-[[18-[8-chloro-2-[4-(isopropyl)thiazol-2-yl]-7-methoxyquinolin-4-yloxy]-2,15-dioxo-3,14,16-triazatricyclo[14.3.0.0^4,6]nonadec-7-en-4-yl]carbonyl]-(cyclopropyl)sulfonamide] | 0.00326 µM | 0.1 nM | 
5 | COc1ccc2c(O[C@@H]3C[C@H]4C(=O)N[C@]5(C(=O)NS(=O)(=O)C6(C)CC6)C[C@H]5/C=C\CCCCCNC(=O)N4C3)cc(-c3nc(C(C)C)cs3)nc2c1Cl (stereo in doubt) [Compound 95, N-[[18-[8-chloro-2-[4-(isopropyl)thiazol-2-yl]-7-methoxyquinolin-4-yloxy]-2,15-dioxo-3,14,16-triazatricyclo[14.3.0.0^4,6]nonadec-7-en-4-yl]carbonyl](1-methylcyclopropyl)sulfonamide] | 0.00404 µM | 0.1 nM | 
6 | COc1ccc2c(O[C@@H]3C[C@H]4C(=O)N[C@]5(C(=O)O)C[C@H]5/C=C\CCCCN(C)C(=O)[C@@H]4C3)cc(-c3nccs3)nc2c1C [Compound 29, 17-[7-methoxy-8-methyl-2-(thiazol-2-yl)quinolin-4-yloxy]-13-methyl-2,14-dioxo-3,13-diazatricyclo[13.3.0.0^4,6]octadec-7-ene-4-carboxylic acid] | 10 µM |  | 
7 | COc1ccc2c(O[C@@H]3C[C@H]4C(=O)N[C@]5(C(=O)O)C[C@H]5/C=C\CCCCN(C)C(=O)[C@@H]4C3)cc(-c3nc(C(C)C)cs3)nc2c1C [Compound 46, 17-[2-(4-isopropylthiazole-2-yl)-7-methoxy-8-methyl-quinolin-4-yloxy]-13-methyl-2,14-dioxo-3,13-diazatricyclo[13.3.0.0^4,6]octadec-7-ene-4-carboxylic acid] | 0.91 µM |  | 
8 | COc1ccc2c(O[C@@H]3C[C@H]4C(=O)N[C@]5(C(=O)NS(=O)(=O)C6(C)CC6)C[C@H]5/C=C\CCCCN(C)C(=O)[C@@H]4C3)cc(-c3nc(C(C)C)cs3)nc2c1C [Compound 48, N-[17-[2-(4-isopropylthiazole-2-yl)-7-methoxy-8-methylquinolin-4-yloxy]-13-methyl-2,14-dioxo-3,13-diazatricyclo[13.3.0.0^4,6]octadec-7-ene-4-carbonyl](1-methylcyclopropyl)sulfonamide] | 0.00233 µM | 0.25 nM | 
9 | COc1ccc2c(O[C@@H]3C[C@H]4C(=O)N[C@]5(C(=O)O)C[C@H]5/C=C\CCCCN(C)C(=O)[C@@H]4C3)cc(-c3nc(C(C)C)cs3)nc2c1Cl [Compound 55, 17-[8-chloro-2-(4-isopropylthiazole-2-yl)-7-methoxyquinolin-4-yloxy]-13-methyl-2,14-dioxo-3,13-diazatricyclo[13.3.0.0^4,6]octadec-7-ene-4-carboxylic acid] | 0.367 µM | 5 nM | 
10 | COc1ccc2c(O[C@@H]3C[C@H]4C(=O)N[C@]5(C(=O)NS(=O)(=O)C6CC6)C[C@H]5/C=C\CCCCN(C)C(=O)[C@@H]4C3)cc(-c3nc(C(C)C)cs3)nc2c1Cl [Compound 56, N-[17-[8-chloro-2-(4-isopropylthiazole-2-yl)-7-methoxyquinolin-4-yloxy]-13-methyl-2,14-dioxo-3,13-diazatricyclo[13.3.0.0^4,6]-octadec-7-ene-4-carbonyl](cyclopropyl)sulfonamide] | 0.00293 µM |  | 
11 | COc1ccc2c(O[C@@H]3C[C@H]4C(=O)N[C@]5(C(=O)NS(=O)(=O)C6(C)CC6)C[C@H]5/C=C\CCCCN(C)C(=O)[C@@H]4C3)cc(-c3nc(C(C)C)cs3)nc2c1Cl [Compound 57, N-[17-[8-chloro-2-(4-isopropylthiazole-2-yl)-7-methoxy-quinolin-4-yloxy]-13-methyl-2,14-dioxo-3,13-diazatricyclo[13.3.0.0^4,6]octadec-7-ene-4-carbonyl] (1-methylcyclopropyl)sulfonamide] | 0.00187 µM | 0.3 nM | 
12 | COc1ccc2c(O[C@@H]3C[C@H]4C(=O)N[C@]5(C(=O)NS(=O)(=O)C6CC6)C[C@H]5/C=C\CCCCN(C)C(=O)[C@@H]4C3)cc(-n3ccc(C(C)C)n3)nc2c1C [Compound 66, N-[17-[2-(3-isopropylpyrazol-1-yl)-7-methoxy-8-methyl-quinolin-4-yloxy]-13-methyl-2,14-dioxo-3,13-diazatricyclo[13.3.0.0^4,6]octadec-7-ene-4-carbonyl](cyclopropyl)sulfonamide] | 0.0036 µM |  | 
13 | CCc1c(OC)ccc2c(O[C@@H]3C[C@H]4C(=O)N[C@]5(C(=O)NS(=O)(=O)C6CC6)C[C@H]5/C=C\CCCCN(C)C(=O)[C@@H]4C3)cc(-c3nc(C(C)C)cs3)nc12 [Compound 72] | 0.066 µM |  | 
14 | COc1ccc2c(O[C@@H]3C[C@H]4C(=O)N[C@]5(C(=O)NS(=O)(=O)C6CC6)C[C@H]5/C=C\CCCCN(C)C(=O)[C@@H]4C3)cc(-c3nc(C(C)C)cs3)nc2c1F [Compound 75] | 0.0575 µM |  | 
15 | COc1ccc2c(O[C@H]3C[C@H]4C(=O)NCCCCC/C=C\[C@@H]5C[C@@]5(C(=O)NS(=O)(=O)C5CC5)NC(=O)[C@@H]4C3)cc(-c3nc(C(C)C)cs3)nc2c1C [Compound 82] | 8.32 µM | 9.4 nM | 
16 | COc1ccc2c(O[C@@H]3C[C@H]4C(=O)N[C@]5(C(=O)NS(=O)(=O)C6CC6)C[C@H]5/C=C\CCCCN(C)C(=O)[C@@H]4C3)cc(-c3cccc(C)n3)nc2c1C [Compound 103, Cyclopropanesulfonic acid {17-[2-(6-methyl-2-pyridyl)-7-methoxy-8-methyl-quinolin-4-yloxy]-13-methyl-2,14-dioxo-3,13-diaza-tricyclo[13.3.0.0^4,6]octadec-7-ene-4-carbonyl}-amide] | 0.0063 µM |  | 
17 | N-[17-[8-ethyl-2-(4-isopropylthiazole-2-yl)-7-methoxyquinolin-4-yloxy]-13-methyl-2,14-dioxo-3,13-diazatricyclo[13.3.0.0^4,6]octadec-7-ene-4-carbonyl](cyclo-propyl)sulfonamide [Compound 71] |  |  | EC50 [2]: 10 µM
18 | N-[18-[2-(4-isopropylthiazole-2-yl)-7-methoxy-8-methylquinolin-4-yl-oxy]-2,15-dioxo-3,14-diazatricyclo[14.3.0.0^4,6]nonadec-7-ene-4-carbonyl](cyclo-propyl)sulfonamide [Compound 81] |  | 1000 nM | EC50 [2]: 10 µM
